Source: PubChem BioAssay AID330 (DTP/NCI, 2004)
“And” between values parts separate entries of the source, which are not always exact repeats. Identical values can stand only once. Toxic doses and inconclusive results are not listed. The calls were made as follows: active = survival T/C of 150% or more; inactive = T/C below 125% in these data.

Tested on: P388 leukemia ip, CD2F1 mice, survival T/C
Assay: NCI In Vivo Anticancer Drug Screen. Data for tumor model P388 Leukemia (intraperitoneal) in CD2F1 (CDF1) mice
Details: endpoint: median survival time, higher = longer survival
In short: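 Mice carrying the transplanted tumor received test compound or vehicle. Survival was recorded in each group, and the value is the treated-group measurement divided by that of the vehicle-treated control group.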

[1] = dose: 200.0 mg/kg/injection, schedule: Q01DX009 (ip), vehicle: saline with Tween-80
[2] = dose: 50.0 mg/kg/injection, schedule: Q01DX005 (ip), vehicle: saline with Tween-80
[3] = dose: 100.0 mg/kg/injection, schedule: Q01DX005 (ip), vehicle: saline with Tween-80
[4] = dose: 200.0 mg/kg/injection, schedule: Q01DX005 (ip), vehicle: saline with Tween-80
[5] = dose: 12.5 mg/kg/injection, schedule: Q01DX009 (ip), vehicle: other
[6] = dose: 25.0 mg/kg/injection, schedule: Q01DX009 (ip), vehicle: other
[7] = dose: 50.0 mg/kg/injection, schedule: Q01DX009 (ip), vehicle: other
[8] = dose: 100.0 mg/kg/injection, schedule: Q01DX009 (ip), vehicle: other
[9] = dose: 200.0 mg/kg/injection, schedule: Q01DX009 (ip), vehicle: other
[10] = dose: 12.5 mg/kg/injection, schedule: Q01DX009 (ip), vehicle: saline with Tween-80
[11] = dose: 25.0 mg/kg/injection, schedule: Q01DX009 (ip), vehicle: saline with Tween-80
[12] = dose: 25.0 mg/kg/injection, schedule: Q01DX009 (ip), vehicle: saline
[13] = dose: 50.0 mg/kg/injection, schedule: Q01DX009 (ip), vehicle: saline with Tween-80
[14] = dose: 50.0 mg/kg/injection, schedule: Q01DX009 (ip), vehicle: saline
[15] = dose: 100.0 mg/kg/injection, schedule: Q01DX009 (ip), vehicle: saline
[16] = dose: 50.0 mg/kg/injection, schedule: Q01DX005 (ip), vehicle: Klucel (hydroxypropylcellulose) (HPC)
[17] = dose: 100.0 mg/kg/injection, schedule: Q01DX005 (ip), vehicle: Klucel (hydroxypropylcellulose) (HPC)
[18] = dose: 200.0 mg/kg/injection, schedule: Q01DX005 (ip), vehicle: Klucel (hydroxypropylcellulose) (HPC)
[19] = dose: 60.0 mg/kg/injection, schedule: Q01DX005 (ip), vehicle: saline with Tween-80
[20] = dose: 120.0 mg/kg/injection, schedule: Q01DX005 (ip), vehicle: saline with Tween-80

Measured: T/C

O=C1OC(c2ccccc2)CC1N1CCOCC1 (stereo not given)
inactive: dose: 100.0 mg/kg/injection, schedule: Q01DX009 (ip), vehicle: saline with Tween-80 100 % of control | dose: 100.0 mg/kg/injection, schedule: Q04DX003 (ip), vehicle: saline sonified 100 % of control | [1] 100 % of control | dose: 400.0 mg/kg/injection, schedule: Q01DX009 (ip), vehicle: saline with Tween-80 100 % of control | dose: 400.0 mg/kg/injection, schedule: Q04DX003 (ip), vehicle: saline sonified 89 % of control

CCC(C)C(NC(=O)C(CCCCN)N(C(=O)OCc1ccccc1)C(=O)OCc1ccccc1)C(=O)O (stereo not given)
inactive: [2] 99 % of control | [3] 90 % of control | [4] 94 % of control

CC1(OC(=O)c2ccc(Cl)cc2)CC(C)(C)[N+]([O-])=N1 (stereo not given)
inactive: [5] 103 % of control | [6] 99 % of control | [7] 99 % of control | [8] 96 % of control | [9] 99 % of control

CCN(CC)CCOc1ccc2c(c1)C(=O)c1cc(OCCN(CC)CC)ccc1-2
inactive: dose: 3.13 mg/kg/injection, schedule: Q01DX009 (ip), vehicle: saline with Tween-80 109 % of control | dose: 6.25 mg/kg/injection, schedule: Q01DX009 (ip), vehicle: saline with Tween-80 109 % of control | [10] 109 % of control | [11] 100 % of control and 113 % of control | [12] 87 % of control | [13] 90 % of control | [14] 100 % of control | [15] 100 % of control

C=CCC(OC(=O)c1ccc(Br)cc1)C1(C)OC1C(C)C1CC(O)(C(OC)OC)NC(=O)O1 (stereo not given)
inactive: dose: 0.25 mg/kg/injection, schedule: Q01DX009 (ip), vehicle: saline + alcohol 108 % of control | dose: 0.5 mg/kg/injection, schedule: Q01DX009 (ip), vehicle: saline + alcohol 107 % of control | dose: 1.0 mg/kg/injection, schedule: Q01DX009 (ip), vehicle: saline + alcohol 115 % of control

COc1ccc(C(O)OC2CC3C=CC2C3)cc1 (stereo not given)
inactive: [5] 114 % of control | [6] 110 % of control | [7] 114 % of control | [8] 114 % of control | [9] 111 % of control

CN1CCCCC1CCN1c2ccccc2Sc2ccc(S(C)=O)cc21 (stereo not given)
inactive: dose: 12.5 mg/kg/injection, schedule: Q01DX005 (ip), vehicle: saline 100 % of control and 102 % of control and 105 % of control | dose: 25.0 mg/kg/injection, schedule: Q01DX005 (ip), vehicle: saline 100 % of control and 105 % of control and 114 % of control | dose: 100.0 mg/kg/injection, schedule: Q01DX005 (ip), vehicle: saline 102 % of control and 103 % of control

COP(=O)(CC(=O)CCCCC1OCCO1)OC
inactive: dose: 60.0 mg/kg/injection, schedule: Q01DX005 (ip), vehicle: saline 110 % of control | dose: 120.0 mg/kg/injection, schedule: Q01DX005 (ip), vehicle: saline 105 % of control | dose: 240.0 mg/kg/injection, schedule: Q01DX005 (ip), vehicle: saline 100 % of control

Cc1ccc2c(c1)N=C(OCCCN(C)C)/C(=C/c1ccccc1)O2
inactive: dose: 50.0 mg/kg/injection, schedule: Q04DX002 (ip), vehicle: Klucel (hydroxypropylcellulose) (HPC) 105 % of control | dose: 100.0 mg/kg/injection, schedule: Q04DX002 (ip), vehicle: Klucel (hydroxypropylcellulose) (HPC) 99 % of control | dose: 200.0 mg/kg/injection, schedule: Q04DX002 (ip), vehicle: Klucel (hydroxypropylcellulose) (HPC) 101 % of control

COc1ccc2c(c1)[C@]13CCN(N=O)[C@H](C2)[C@@H]1CCC(=O)C3
inactive: dose: 25.0 mg/kg/injection, schedule: Q01DX001 (ip), vehicle: saline with Tween-80 92 % of control | dose: 50.0 mg/kg/injection, schedule: Q01DX001 (ip), vehicle: saline with Tween-80 108 % of control | dose: 100.0 mg/kg/injection, schedule: Q01DX001 (ip), vehicle: saline with Tween-80 106 % of control and 92 % of control

CC12C(=O)OC(=O)C1(O)C1c3ccccc3C2c2ccccc21 (stereo not given)
inactive: [16] 101 % of control | [17] 101 % of control | [18] 101 % of control

OC(c1ccccc1)C1CCNCC1 (stereo not given) (tested in a mixture with another compound)
inactive: [19] 105 % of control | [20] 96 % of control | dose: 240.0 mg/kg/injection, schedule: Q01DX005 (ip), vehicle: saline with Tween-80 99 % of control

C/C(=N\N=C(/N)N1CCCC1)c1ccc2c(c1)Cc1cc(/C(C)=N/N=C(\N)N3CCCC3)ccc1-2
inactive: dose: 25.0 mg/kg/injection, schedule: Q04DX002 (ip), vehicle: saline with Tween-80 98 % of control | dose: 50.0 mg/kg/injection, schedule: Q04DX002 (ip), vehicle: saline with Tween-80 98 % of control

Cc1ccc(Nc2nnc(Nc3ccc(C)cn3)c3ccccc23)nc1
inactive: [2] 90 % of control | [3] 89 % of control

CC1CC[N-]C(N)N1.CC1CC[N-]C(N)N1.[Cl][Pd][Cl] (stereo not given)
inactive: dose: 60.0 mg/kg/injection, schedule: Q01DX005 (ip), vehicle: Klucel (hydroxypropylcellulose) (HPC) 97 % of control | dose: 120.0 mg/kg/injection, schedule: Q01DX005 (ip), vehicle: Klucel (hydroxypropylcellulose) (HPC) 97 % of control | dose: 240.0 mg/kg/injection, schedule: Q01DX005 (ip), vehicle: Klucel (hydroxypropylcellulose) (HPC) 90 % of control

Cc1[nH]c2ccc(N(C)C)cc2c(=O)c1Cc1c(C)[nH]c2ccc(N(C)C)cc2c1=O
inactive: [19] 92 % of control | [20] 89 % of control

CCCCC(NC(=O)CNC(=O)OCc1ccccc1)C(=O)O (stereo not given)
inactive: [16] 90 % of control | [17] 104 % of control | [18] 95 % of control

NCCCNCCSP(=O)(O)O
inactive: [10] 106 % of control | dose: 12.5 mg/kg/injection, schedule: Q01DX009 (ip), vehicle: saline 108 % of control | [11] 104 % of control | [12] 100 % of control and 104 % of control | [13] 95 % of control | [14] 103 % of control and 109 % of control | [15] 104 % of control and 87 % of control | [1] 106 % of control | dose: 200.0 mg/kg/injection, schedule: Q01DX009 (ip), vehicle: saline 112 % of control

CCOc1ccc(N2C(N)=NC(N)=NC2(C)C)cc1
inactive: dose: 12.5 mg/kg/injection, schedule: Q01DX005 (ip), vehicle: saline with Tween-80 99 % of control | dose: 25.0 mg/kg/injection, schedule: Q01DX005 (ip), vehicle: saline with Tween-80 101 % of control | [2] 101 % of control and 108 % of control

Nc1nc2[nH]c(=O)[nH]c2c(=O)[nH]1
inactive: [2] 94 % of control | [3] 93 % of control | [4] 91 % of control

[Cl][Pt+2][Cl].[NH-]C(C(=O)O)C([NH-])C(=O)O (stereo not given)
inactive: dose: 6.25 mg/kg/injection, schedule: Q04DX002 (ip), vehicle: saline 96 % of control | dose: 12.5 mg/kg/injection, schedule: Q04DX002 (ip), vehicle: saline 96 % of control | dose: 25.0 mg/kg/injection, schedule: Q04DX002 (ip), vehicle: saline 100 % of control | dose: 50.0 mg/kg/injection, schedule: Q04DX002 (ip), vehicle: saline 117 % of control | dose: 100.0 mg/kg/injection, schedule: Q04DX002 (ip), vehicle: saline 101 % of control | dose: 200.0 mg/kg/injection, schedule: Q04DX002 (ip), vehicle: saline 97 % of control
